Laboratory results reported in patent US12570606B2, “Myeloperoxidase imaging agents” (The General Hospital Corporation, priority 2016, dated 2026).
Where a name gives a salt, the structure may show the parent alone. Read-outs that look alike come from different tables or passages of the source.

Key:
MPO activity [1] = assay: Irritant contact dermatitis (PMA) in vivo FRI; design: species or system mouse
Experimental: Female C57Bl/6J (wildtype, Jackson laboratories, Bar Harbor, Me.) and MPO-knockout (KO, Jackson laboratories) mice were treated topically with 0.08 μmol Phorbol 12-myristate 13-acetate (PMA, Sigma, St. Louis, Mo.) on one hind-paw and with vehicle on the other to induce irritant contact dermatitis. This model is well described in the literature and triggers rapid inflammation with influx of neutrophils into the skin. 6 hours after induction, mice were injected intravenously with either 2 nmol of Compound 3 or the non-specific analogue, Compound 18. 1 hour later, 2.5 μg SA-647 was injected intravenously to bind to the biotinylated Compound 3. Mice underwent in vivo imaging using a dedicated in vivo FRI system as described above in Example 11.

MPO activity [2] = biological target: T1, MPO activity (Mus musculus, UniProt P11247); assay: Bacterial cellulitis (Streptococcus pneumoniae), in vivo FRI of neutrophil extracellular traps
T1 construct: from tissue; host or cells: C57Bl/6J mice: PMA-treated hind-paw, salmonella brain abscess (slices and frozen sections), S. pneumoniae cellulitis of the thigh
T1 sequence (P11247 139-718): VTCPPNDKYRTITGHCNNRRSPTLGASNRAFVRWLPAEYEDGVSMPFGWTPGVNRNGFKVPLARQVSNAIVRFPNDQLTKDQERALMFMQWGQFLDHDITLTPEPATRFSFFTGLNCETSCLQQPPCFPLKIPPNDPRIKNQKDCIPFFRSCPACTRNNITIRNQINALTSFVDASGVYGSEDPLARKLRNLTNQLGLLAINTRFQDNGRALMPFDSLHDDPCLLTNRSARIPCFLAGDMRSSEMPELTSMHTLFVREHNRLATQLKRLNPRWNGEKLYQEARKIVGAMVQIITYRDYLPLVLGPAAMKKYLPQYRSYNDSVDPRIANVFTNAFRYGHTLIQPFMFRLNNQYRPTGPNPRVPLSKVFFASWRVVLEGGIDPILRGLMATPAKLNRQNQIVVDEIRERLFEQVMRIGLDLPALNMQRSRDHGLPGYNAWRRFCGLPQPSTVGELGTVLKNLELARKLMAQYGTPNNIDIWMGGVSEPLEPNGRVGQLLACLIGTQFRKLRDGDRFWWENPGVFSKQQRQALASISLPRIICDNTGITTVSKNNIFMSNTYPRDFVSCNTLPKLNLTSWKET
Experimental: Female C57Bl/6J mice were injected subcutaneously at the dorsal aspect of the thigh with 10^8 CFU of Streptococcus pneumonia (SPn, ATCC #6303) to induce bacterial cellulitis. 6 hours after induction, mice were injected intravenously with 2 nmol of […]. 1 hour later, 2.5 μg Strepavidin-AlexaFluor-647 were injected intravenously to bind to the biotinylated Compound 3. To distinguish neutrophil granule release (where MPO and other granule proteins are secreted into the phagosome or extracellular space) from NET formation (where chromatin strands with MPO are released by neutrophils), 1 μg of the membrane-impermeable DNA dye Sytox Green (Invitrogen) was injected intravenously at the same time. Mice then underwent in vivo imaging using a dedicated FRI system as described above in Example 11. AlexaFluor-647 bound to MPO-sensor was detected at 595-635 nm excitation and 675/50 nm emission. Sytox Green was detected at 460-490 nm excitation and 530/40 nm emission.

purified human MPO = biological target: T2, purified human MPO (Homo sapiens, UniProt P05164); assay: Fluorescence molecular tomography (FMT) of MPO embedded in matrigel, sensitivity; type: in vivo, mouse; settings: 2 nmol i.v. then SA-647, matrigel in thigh
T2 construct: purchased Lee Biosolutions, St. Louis, Mo
T2 sequence (P05164 49-745): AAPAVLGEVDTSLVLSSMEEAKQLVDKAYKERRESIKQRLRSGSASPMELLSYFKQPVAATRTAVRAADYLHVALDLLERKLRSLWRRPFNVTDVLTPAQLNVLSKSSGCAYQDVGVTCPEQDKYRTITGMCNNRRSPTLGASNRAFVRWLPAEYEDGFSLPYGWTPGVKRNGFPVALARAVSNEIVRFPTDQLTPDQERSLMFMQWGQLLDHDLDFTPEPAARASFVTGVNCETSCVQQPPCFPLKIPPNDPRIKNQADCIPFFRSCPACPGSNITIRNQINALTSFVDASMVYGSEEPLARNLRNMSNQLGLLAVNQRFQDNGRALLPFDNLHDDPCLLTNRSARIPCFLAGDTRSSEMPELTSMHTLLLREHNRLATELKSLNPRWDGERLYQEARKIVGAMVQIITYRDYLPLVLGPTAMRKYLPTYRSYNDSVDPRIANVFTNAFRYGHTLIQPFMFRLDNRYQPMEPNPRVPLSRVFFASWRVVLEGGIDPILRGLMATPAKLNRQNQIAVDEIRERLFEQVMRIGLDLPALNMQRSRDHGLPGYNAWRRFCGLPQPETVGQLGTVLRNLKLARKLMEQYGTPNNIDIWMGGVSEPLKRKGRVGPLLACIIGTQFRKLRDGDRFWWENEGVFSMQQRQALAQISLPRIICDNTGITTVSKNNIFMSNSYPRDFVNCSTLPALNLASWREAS
Text: (§1) Four to ten weeks old female C57BL/6J or MPO-knockout mice (from Jackson Laboratories, Bar Harbor, Me.) were used for all animal experiments. Mice were fed biotin free diet for 5 days before imaging with fluorescence molecular tomography (FMT) or fluorescence […] imaging (FRI).
To validate sensitivity of the Compound 3, different concentrations of purified human MPO (Lee Biosolutions, St. Louis, Mo.) and glucose oxidase (GOX, as a H2O2 donor, Affymetrix, Santa Clara, Calif.) were embedded in a mixture of matrigel (BD Bioscience, San Jose, Calif.) and minimal essential medium (MEM, Corning, Corning, N.Y.), and injected 400 μL of this mixture subcutaneously into the ventral aspect of the thigh. After 30 min, 2 nmol of Compound 3 in 100 μL phosphate buffered saline (PBS) was injected intravenously. One hour later, 25 μL of streptavidin AlexaFluor-647 (2 mg/mL, SA-647, Invitrogen, Carlsbad, Calif.) was injected intravenously, and FMT was performed every 15 minutes for a total of 60 minutes. Mice were imaged on a dedicated FMT system (Perkin Elmer, Waltham, Mass.) at 635 nm excitation and 655 nm emission.

MPO activity [3] = biological target: T1, MPO activity; assay: Staining of fresh-frozen ex vivo brain sections with Compound 3 and SA-647; settings: Compound 3 followed by SA-647
Experimental: (§2) Female C57Bl/6J mice were then anesthetized and fixed in a stereotactic head frame (David Kopf Instruments, Tujunga, Calif.). 1-3×10^6 colony forming units (CFU) salmonella bacteria (ATCC #14028) were suspended in 2 μL PBS and slowly injected into the deep frontal white matter (2.0 mm lateral and 1.2 mm anterior to bregma) at a depth of 3.0 mm. 23 hours later, mice were injected intravenously with 2 nmol Compound 3 as above, followed by intravenous injection of SA-647. Mice were then anesthetized with Isoflurane and transcardially perfused with 20 mL of ice cold PBS. Brains were harvested and cut into 1 mm coronal slices using a brain slicer (Harvard Apparatus, Holliston, Mass.) and immediately underwent FRI as described above. Brains from mice injected with salmonella were also embedded in OCT (Sakura, Torrance, Calif.) and snap-frozen in chilled isopentane (Sigma) and stored at […] until sectioning. Serial 6 μm sections were cut on a cryostat (Thermo scientific). Sections were thawed at room temperature for 10-20 minutes and rehydrated in PBS for 10 minutes. Then sections were incubated in blocking buffer (1% horse serum in PBS) for 30 minutes at room temperature, and incubated with MPO specific probe diluted in incubation buffer (1% bovine serum albumin 1% normal donkey serum, 0.3% Triton X-100, and 0.01% sodium azide in PBS) overnight at 4° C. […]

MPO [4] = biological target: T3, MPO (Homo sapiens, UniProt P05164); assay: Fluorescence reflectance imaging (FRI) of GOX/MPO/ABAH in matrigel, specificity; type: in vivo, mouse; settings: 2 nmol i.v. then SA-647
T3 sequence (P05164 49-745): T2 sequence (P05164 49-745)
Text: as §1

MPO [5] = biological target: T4, MPO (Mus musculus, UniProt P11247); assay: CNR of Compound 3 in dermatitis, CNS abscess and cellulitis models; type: in vivo; design: from tissue; settings: detection of dermatitis
T4 sequence (P11247 139-718): T1 sequence (P11247 139-718)

MPO activity [6] = biological target: T1, MPO activity; assay: Brain abscess (salmonella), ex vivo FRI of coronal brain slices; type: in vivo; settings: probe at 23 hours
Experimental: as §2

MPO [7] = biological target: T3, MPO; assay: In vitro color change (oligomerization) with MPO; type: biochemical; settings: 2 mM, 37° C., 1 hr
Experimental: (§3) Each vial contains 2 mM of ^19F compound 9 in PBS (150 uL, 5% DMSO) and the following agents, and was incubated at 37° C. for 1 hr: • Vial 1: control (2 mM 19F […] only) • Vial 2: Glucose (6 μL, 1M), GOX (4 μL, 1 mg/mL); • Vial 3: H2O2 (2 μL), HRP (horseradish peroxidase, 1 μL); • Vial 4: H2O2(2 μL), MPO (10 μL): • Vial 5: H2O2 (2 μL), MPO (10 μL);

[8] = tested on: HRP (horseradish peroxidase); assay: In vitro color change (oligomerization) with horseradish peroxidase; type: biochemical; settings: Vial 3: H2O2, HRP; 2 mM, 37° C., 1 hr
Experimental: as §3

[9] = Solubility of the hydrochloric acid salt; type: physicochemical; settings: hydrochloric acid salt after Boc de-protection with 1M HCl
MPO [10] = biological target: T3, MPO; design: host or cells: transgenic mice overexpressing human MPO; settings: in vivo, transgenic mice with overexpression of human MPO; cited from earlier work
MPO [11] = biological target: T3, MPO; settings: in vitro; cited from earlier work

For `O=C(CCCC[C@@H]1SC[C@@H]2NC(=O)N[C@@H]21)N[C@@H](Cc1c[nH]c2ccc(O)cc12)C(=O)NCCc1c[nH]c2ccc(O)cc12` [Compound 3, N—((S)-3-(5-hydroxy-1H-indol-3-yl)-1-((2-(5-hydroxy-1H-indol-3-yl)ethyl)amino)-1-oxopropan-2-yl)-5-((3aS,4S,6aR)-2-oxohexahydro-1H-thieno[3,4-d]imidazol-4-yl)pentanamide], the “Fluorescence intensity, PMA-treated hind-paw” value (MPO activity [1]; MPO-KO mice) was 36.9±9.8 RFU, the “Fluorescence intensity, vehicle-treated hind-paw” value (MPO activity [1]; MPO-KO mice) was 43.9±10.8 RFU and the “Fluorescence intensity, PMA-treated hind-paw” value (MPO activity [1]; wildtype mice) was 130.5±4.7 RFU. For the same compound, the “Fluorescence intensity, vehicle-treated hind-paw” value (MPO activity [1]; wildtype mice) was 34.4±8.6 RFU, the “Fluorescence signal, side injected with PBS” value (MPO activity [2]; contralateral thigh) was 49.4±15.5 RFUs and the “Fluorescence signal, side injected with SPn” value (MPO activity [2]; thigh, 6 hours after induction) was 212.5±22.9 RFU. The “FMT fluorescence signal versus MPO concentration” value (purified human MPO) was “linear increase in signal”, the “Fluorescent signal on abscess and control sections” value (MPO activity [3]) was “increased fluorescent signal consistent with MPO activity in the ipsilateral hemisphere but not the contralateral hemisphere” and the “FRI fluorescence signal in absence of both MPO and GOX” value (MPO [4]) was “no appreciable fluorescence”. For the same compound, the “FRI fluorescence signal with MPO and GOX in matrigel” value (MPO [4]) was “increased fluorescent signal”, the “FRI fluorescence signal with MPO but without GOX” value (MPO [4]) was “no fluorescence was detectible” and the CNR (MPO [5]) was “approximately 4”. The “Fluorescence intensity, contralateral hemisphere (mean value)” value (MPO activity [6]) was 10972 RFU and the “Fluorescence intensity, ipsilateral hemisphere (mean value)” value (MPO activity [6]) was 43242 RFU.
For `O=C(Cc1c[nH]c2ccc(O)cc12)N[C@@H](Cc1c[nH]c2ccc(O)cc12)C(=O)NCCOCCOCCF` [Compound 8, (S)—N-(2-(2-(2-fluoroethoxy)ethoxy)ethyl)-3-(5-hydroxy-1H-indol-3-yl)-2-(2-(5-hydroxy-1H-indol-3-yl)acetamido)propanamide], the Color change (MPO [7]; Vial 2: Glucose, GOX, no MPO) was “no color change”, the Color change (MPO [7]; Vials 4 and 5: H2O2, MPO) was “turned to yellow or brown” and the Color change [8] was “turned to yellow or brown”.
For `CN(C)CCCC[C@H](NC(=O)[C@H](Cc1c[nH]c2ccc(O)cc12)NC(=O)Cc1c[nH]c2ccc(O)cc12)C(=O)NCCOCCOCC[18F]` [Example 18, (S)-6-(dimethylamino)-N-(2-(2-(2-fluoro-^18F)ethoxy)ethoxy)ethyl)-2-((S)-3-(5-hydroxy-1H-indol-3-yl)-2-(2-(5-hydroxy-1H-indol-3-yl)acetamido)propanamido)hexanamide hydrochloric acid salt], the Solubility [9] was “increased solubility”.
In the case of “sulfonaphthoaminophenyl fluorescein [SNAPF]”, the CNR (MPO [10]) is listed as about 1.6 and the CNR (MPO [11]) is listed as “around 1.4”.
